Results as given in patent publication US20240150377A1, “MODULATORS OF CYSTIC FIBROSIS TRANSMEMBRANE CONDUCTANCE REGULATOR” (VERTEX PHARMACEUTICALS INCORPORATED, priority 2020, published 2024).

How the values were obtained:
CFTR [1] = target: T1, CFTR (Homo sapiens, UniProt P13569); experiment: Membrane potential dye, Enteroid Assay A; assay type: cell-based; conditions: Table 6
Outline: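 % Activity: chloride transport relative to a 3 μM/3 μM corrector pair plus 300 nM acute potentiator control. Primary human enteroid cells, 18-24 h compound exposure at 37 °C; membrane potential dye (methyl oxonol) fluorescence over 15 min after forskolin (10 μM)/IBMX (100 μM)/Compound III (300 nM) stimulation in chloride-free buffer.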

CFTR [2] = target: T1, CFTR; experiment: Membrane potential dye, Enteroid Assay B; assay type: cell-based; conditions: for Ent. B Max Activity: chloride transport as % of triple combination control (Enteroid Assay B); for EC50: read-out: Ent. B EC50
Outline: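 Fluorescence read over 15 min after chloride-free stimulation (10 μM forskolin, 100 μM IBMX, 300 nM Compound III) gave chloride transport, reported as % activity versus a triple-corrector/potentiator control. Beforehand, human enteroid cells had 18-24 h compound exposure at 37° C and 25 min methyl oxonol dye loading at room temperature.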

[3] = Table 8, human enteroid cells, 18-24 hours, acute 10 μM forskolin and 300 nM ivacaftor
[4] = Table 7, human enteroid cells, 18-24 hours, acute 10 μM forskolin and 300 nM ivacaftor

T1 sequence (P13569 with tags, fused parts or gaps DEL508-508): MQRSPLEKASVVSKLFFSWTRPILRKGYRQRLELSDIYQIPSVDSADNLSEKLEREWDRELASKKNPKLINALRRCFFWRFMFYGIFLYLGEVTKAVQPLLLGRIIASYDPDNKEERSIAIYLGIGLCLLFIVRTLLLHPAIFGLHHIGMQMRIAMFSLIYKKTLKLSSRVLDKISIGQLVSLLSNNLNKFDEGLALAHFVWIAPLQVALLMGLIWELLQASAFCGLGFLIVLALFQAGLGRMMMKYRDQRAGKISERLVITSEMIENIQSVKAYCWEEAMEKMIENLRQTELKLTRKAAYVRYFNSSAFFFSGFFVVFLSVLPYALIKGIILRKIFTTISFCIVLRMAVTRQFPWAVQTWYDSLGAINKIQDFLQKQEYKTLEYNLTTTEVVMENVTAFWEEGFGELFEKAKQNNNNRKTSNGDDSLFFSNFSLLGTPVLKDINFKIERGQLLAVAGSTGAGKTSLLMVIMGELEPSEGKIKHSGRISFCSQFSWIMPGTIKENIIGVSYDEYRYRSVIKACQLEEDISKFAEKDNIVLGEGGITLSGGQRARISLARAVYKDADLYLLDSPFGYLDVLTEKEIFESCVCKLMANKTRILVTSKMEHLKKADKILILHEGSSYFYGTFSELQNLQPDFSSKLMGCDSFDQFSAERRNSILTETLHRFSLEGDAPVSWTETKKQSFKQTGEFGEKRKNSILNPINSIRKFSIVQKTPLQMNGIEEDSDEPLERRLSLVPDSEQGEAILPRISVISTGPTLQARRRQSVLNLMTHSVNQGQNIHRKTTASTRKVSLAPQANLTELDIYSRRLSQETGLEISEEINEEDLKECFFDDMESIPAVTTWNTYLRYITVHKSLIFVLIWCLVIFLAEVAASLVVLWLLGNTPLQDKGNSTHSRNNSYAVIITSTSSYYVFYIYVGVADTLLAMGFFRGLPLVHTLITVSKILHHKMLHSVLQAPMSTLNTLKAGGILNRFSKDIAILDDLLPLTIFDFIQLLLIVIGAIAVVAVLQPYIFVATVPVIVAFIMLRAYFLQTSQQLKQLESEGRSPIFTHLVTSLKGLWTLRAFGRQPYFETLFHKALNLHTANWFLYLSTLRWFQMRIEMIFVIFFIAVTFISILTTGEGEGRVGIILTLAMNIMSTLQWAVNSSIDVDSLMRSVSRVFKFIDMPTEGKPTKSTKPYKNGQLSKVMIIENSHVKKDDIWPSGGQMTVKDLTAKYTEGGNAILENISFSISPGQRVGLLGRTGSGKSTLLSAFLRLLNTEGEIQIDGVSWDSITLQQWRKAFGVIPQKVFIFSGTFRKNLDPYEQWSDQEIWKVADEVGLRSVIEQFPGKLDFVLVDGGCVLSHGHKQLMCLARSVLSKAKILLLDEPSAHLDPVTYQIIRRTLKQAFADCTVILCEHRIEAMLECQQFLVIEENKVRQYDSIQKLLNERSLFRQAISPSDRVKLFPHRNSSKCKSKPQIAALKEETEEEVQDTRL

SMILES | Ent. B Max Activity (CFTR [2]; Table 8) | EC50 (CFTR [2]; [3]) [nM] | other results
Cc1cccc(C)c1-c1cc2nc(n1)NS(=O)(=O)c1cccc(c1)C(=O)N(Cc1ncccn1)[C@H](CC(C)C)CO2 [Compound 77, (11R)-6-(2,6-Dimethylphenyl)-11-isobutyl-2,2-dioxo-12-(pyrimidin-2-ylmethyl)-9-oxa-2λ^6-thia-3,5,12,19-tetrazatricyclo[12.3.1.14,8]nonadeca-1(18),4(19),5,7,14,16-hexaen-13-one] |  |  | Ent. A Max Activity (CFTR [1]; chloride transport as % of triple combination control (Enteroid Assay A)): +++ (+++ is >60%); EC50 (CFTR [1]; human enteroid cells, 18-24 hours, acute 10 μM forskolin and 300 nM ivacaftor, read-out: Ent. A EC50): < 1000 nM; Ent. B Max Activity (CFTR [2]; Table 6): +++ (+++ is >60%); EC50 (CFTR [2]; Table 6, human enteroid cells, 18-24 hours, acute 10 μM forskolin and 300 nM ivacaftor): < 1000 nM
Cc1cccc(C)c1-c1cc2nc(n1)NS(=O)(=O)c1cccc(c1)C(=O)N(CC1CC(C(C)(C)O)C1)[C@H](CC(C)(C)C)CO2 (some centres unmarked) [Compound 1020] | +++ (+++ is >60%) | < 1000 | 
Cc1cccc(C)c1-c1cc2nc(n1)NS(=O)(=O)c1cccc(c1)C(=O)N(Cc1ncc(C(C)C)cn1)[C@H](CC(C)(C)C)CO2 [Compound 1077] |  |  | Ent. B Max Activity (%) (CFTR [2]; Table 9): +++ (+++ is >600%); EC50 (CFTR [2]; Table 9): < 1000 nM
C=C(C)c1cnc(CN2C(=O)c3cccc(c3)S(=O)(=O)Nc3nc(cc(-c4c(C)cccc4C)n3)OC[C@H]2CC(C)(C)C)nc1 [Compound 1078] |  |  | Ent. B Max Activity (%) (CFTR [2]; Table 9): +++ (+++ is >600%); EC50 (CFTR [2]; Table 9): < 1000 nM
Cc1cccc(C)c1-c1cc2nc(n1)NS(=O)(=O)c1cccc(c1)C(=O)N(Cc1ccc(C(C)(C)O)cn1)[C@H](CC(C)(C)C)CO2 [Compound 1082] | +++ (+++ is >60%) | < 1000 | 
Cc1cccc(C)c1-c1cc2nc(n1)NS(=O)(=O)c1cccc(n1)C(=O)N(Cc1cccnc1)[C@H](CC(C)(C)C)CO2 [Compound 1083] | +++ (+++ is >60%) | < 1000 | 
Cc1cccc(C)c1-c1cc2nc(n1)NS(=O)(=O)c1cccc(n1)C(=O)N(Cc1ccccn1)[C@H](CC(C)(C)C)CO2 [Compound 1084] | +++ (+++ is >60%) | < 1000 | 
Cc1cccc(C)c1-c1cc2nc(n1)NS(=O)(=O)c1cccc(n1)C(=O)N(Cc1ccccc1)[C@H](CC(C)(C)C)CO2 [Compound 1085] | +++ (+++ is >60%) | < 1000 | 
Cc1cccc(C)c1-c1cc2nc(n1)NS(=O)(=O)c1cccc(c1)C(=O)N(Cc1ccccc1)[C@H](CC(C)(C)C)CO2 [Compound 1087] | +++ (+++ is >60%) | < 1000 | 
Cc1cccc(C)c1-c1cc2nc(n1)NS(=O)(=O)c1cccc(c1)C(=O)N(Cc1ccc(C(C)(C)O)nc1)[C@H](CC(C)(C)C)CO2 [Compound 1089] | +++ (+++ is >60%) | < 1000 | 
Cc1cccc(C)c1-c1cc2nc(n1)NS(=O)(=O)c1cccc(n1)C(=O)N(Cc1cccnn1)[C@H](CC(C)(C)C)CO2 [Compound 1090] | +++ (+++ is >60%) | < 1000 | 
Cc1cccc(C)c1-c1cc2nc(n1)NS(=O)(=O)c1cccc(n1)C(=O)N(Cc1ccncn1)[C@H](CC(C)(C)C)CO2 [Compound 1091] | +++ (+++ is >60%) | < 1000 | 
Cc1cccc(C)c1-c1cc2nc(n1)NS(=O)(=O)c1cccc(n1)C(=O)N(Cc1ccc(C(C)(C)O)cc1)[C@H](CC(C)(C)C)CO2 [Compound 1092] | +++ (+++ is >60%) | < 1000 | 
Cc1cccc(C)c1-c1cc2nc(n1)NS(=O)(=O)c1cccc(c1)C(=O)N(Cc1cncnc1)[C@H](CC(C)(C)C)CO2 [Compound 1095] | +++ (+++ is >60%) | < 1000 | 
Cc1cccc(C)c1-c1cc2nc(n1)NS(=O)(=O)c1cccc(c1)C(=O)N(Cc1cnc(O)nc1)[C@H](CC(C)(C)C)CO2 [Compound 1096] | + (+ is <30%) |  | 
Cc1cccc(C)c1-c1cc2nc(n1)NS(=O)(=O)c1cccc(c1)C(=O)N(Cc1ccc(O)nn1)[C@H](CC(C)(C)C)CO2 [Compound 1097] | ++ (++ is 30-60%) | < 1000 | 
COc1cnc(CN2C(=O)c3cccc(c3)S(=O)(=O)Nc3nc(cc(-c4c(C)cccc4C)n3)OC[C@H]2CC(C)(C)C)cn1 [Compound 1099] | +++ (+++ is >60%) | < 1000 | 
Cc1cccc(C)c1-c1cc2nc(n1)NS(=O)(=O)c1cccc(c1)C(=O)N(Cc1cnccn1)[C@H](CC(C)(C)C)CO2 [Compound 1100] | +++ (+++ is >60%) | < 1000 | 
COc1ncc(CN2C(=O)c3cccc(c3)S(=O)(=O)Nc3nc(cc(-c4c(C)cccc4C)n3)OC[C@H]2CC(C)(C)C)cn1 [Compound 1101] | +++ (+++ is >60%) | < 1000 | 
Cc1cccc(C)c1-c1cc2nc(n1)NS(=O)(=O)c1cccc(c1)C(=O)N(CCOC(F)(F)F)[C@H](CC(C)C)CO2 [Compound 1103] |  |  | Ent. B Max Activity (CFTR [2]; Table 7): +++ (+++ is >60%); EC50 (CFTR [2]; [4]): < 1000 nM
Cc1cccc(C)c1-c1cc2nc(n1)NS(=O)(=O)c1cccc(c1)C(=O)N(CC#N)[C@H](CC(C)C)CO2 [Compound 1104] |  |  | Ent. B Max Activity (CFTR [2]; Table 7): +++ (+++ is >60%); EC50 (CFTR [2]; [4]): < 1000 nM
Cc1cccc(C)c1-c1cc2nc(n1)NS(=O)(=O)c1cccc(c1)C(=O)N(CCC(C)(C)C#N)[C@H](CC(C)C)CO2 [Compound 1105] |  |  | Ent. B Max Activity (CFTR [2]; Table 7): +++ (+++ is >60%); EC50 (CFTR [2]; [4]): < 1000 nM
Cc1cccc(C)c1-c1cc2nc(n1)NS(=O)(=O)c1cccc(c1)C(=O)N(CCC1(C(F)(F)F)CC1)[C@@H]1CN(C3CC4(CCCCC4)C3)C[C@H]1O2 [Compound 1190, (3R,7R)-19-(2,6-Dimethylphenyl)-5-{spiro[3.5]nonan-2-yl}-8-{2-[1-(trifluoromethyl)cyclopropyl]ethyl}-2-oxa-15λ^6-thia-5,8,16,18,21-pentaazatetracyclo[15.3.1.110,14.03,7]docosa-1(20),10(22),11,13,17(21),18-hexaene-9,15,15-trione] |  |  | Ent. B Max Activity (%) (CFTR [2]; Table 9): ++ (++ is 30-60%); EC50 (CFTR [2]; Table 9): < 1000 nM
Cc1cccc(C)c1-c1cc2nc(n1)NS(=O)(=O)c1cccc(c1)C(=O)N(CCC1CCOCC1)[C@@H]1CN(C3CC4(CCCC4)C3)C[C@H]1O2 [Compound 1191, (3R,7R)-19-(2,6-Dimethylphenyl)-8-[2-(oxan-4-yl)ethyl]-5-{spiro[3.4]octan-2-yl}-2-oxa-15λ^6-thia-5,8,16,18,21-pentaazatetracyclo[15.3.1.110,14.03,7]docosa-1(20),10(22),11,13,17(21),18-hexaene-9,15,15-trione] |  |  | Ent. B Max Activity (%) (CFTR [2]; Table 9): +++ (+++ is >600%); EC50 (CFTR [2]; Table 9): < 1000 nM

Continued, in another order:

Ent. B Max Activity (CFTR [2]; Table 8) | EC50 (CFTR [2]; [3]) [nM] | SMILES | other results
+++ (+++ is >60%) | < 1000 | Cc1cccc(C)c1-c1cc2nc(n1)NS(=O)(=O)c1cccc(c1)C(=O)N([C@H](C)c1ccccc1)[C@H](CC(C)(C)C)CO2 [Compound 1079] | 
+++ (+++ is >60%) | < 1000 | Cc1cccc(C)c1-c1cc2nc(n1)NS(=O)(=O)c1cccc(c1)C(=O)N(Cc1cccnc1)[C@H](CC(C)(C)C)CO2 [Compound 1086] | 
+++ (+++ is >60%) | < 1000 | Cc1cccc(C)c1-c1cc2nc(n1)NS(=O)(=O)c1cccc(c1)C(=O)N(Cc1ccnc(NC(=O)OC(C)C)c1)[C@H](CC(C)(C)C)CO2 [Compound 1088] | 
+++ (+++ is >60%) | < 1000 | Cc1cccc(C)c1-c1cc2nc(n1)NS(=O)(=O)c1cccc(c1)C(=O)N(CCCC(C)(C)O)[C@H](CC(C)(C)C)CO2 [Compound 1093] | 
+++ (+++ is >60%) | < 1000 | Cc1cccc(C)c1-c1cc2nc(n1)NS(=O)(=O)c1cccc(c1)C(=O)N(Cc1ccc(C(C)(C)O)cc1)[C@H](CC(C)(C)C)CO2 [Compound 1094] | 
+++ (+++ is >60%) | < 1000 | Cc1cccc(C)c1-c1cc2nc(n1)NS(=O)(=O)c1cccc(c1)C(=O)N(Cc1ccncn1)[C@H](CC(C)(C)C)CO2 [Compound 1098] | 
+++ (+++ is >60%) | < 1000 | Cc1cccc(C)c1-c1cc2nc(n1)NS(=O)(=O)c1cccc(c1)C(=O)N(Cc1cccc(CN(C)C)c1)[C@H](CC(C)C)CO2 [Compound 1102] | 
+++ (+++ is >60%) | < 1000 | Cc1cccc(C)c1-c1cc2nc(n1)NS(=O)(=O)c1cccc(c1)C(=O)N(Cc1ccc(C(=O)N(C)C)cn1)[C@H](CC(C)(C)C)CO2 [Compound 1110] | 
